The supplement of paper PMC4862054

Assays:
Conditions in all cases: incubation time: 72 h
[1] = tested on: CAL-120; assay: normalised viability (% of control), CellTiter-Blue; higher = more viable cells (about 100 = DMSO control)
Outline: (§1)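 Plates were quality-checked by Z'-factor and normalised to vehicle (100) and a positive kill control (0). The underlying assay incubated breast cancer cell lines for 72 h on 384-well plates with compound, then added 2.5 µl CellTiter-Blue for 2 h at 37 °C and read at 560/590 nm. The value is normalised viability at a single listed concentration of the series.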

[2] = tested on: HCC1143; assay: as above
Outline: as §1

[3] = tested on: HCC1599; assay: as above
Outline: as §1

[4] = tested on: MDA-MB-231; assay: as above
Outline: as §1

[5] = tested on: MDA-MB-436; assay: as above
Outline: as §1

[6] = tested on: MDA-MB-453; assay: as above
Outline: as §1

[7] = tested on: MDA-MB-468; assay: as above
Outline: as §1

[8] = tested on: SK-BR-3; assay: as above
Outline: as §1

[9] = tested on: BT-474; assay: drug sensitivity score (DSS), CellTiter-Glo (DSS (AUC-based score)); higher = stronger drug effect (viability inhibition or cytotoxicity); extreme values may be limits of the assay
Outline: (§2)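 Plates with 384 wells held compound at 5 concentrations in 10-fold steps over a 10,000-fold range specific to each compound. Breast cancer cell lines were added in 20 µl suspension and incubated 72 h, then read for CellTox Green and CellTiter-Glo signals, with each plate normalised to 0.1 % DMSO and a positive kill control. The drug sensitivity score is based on the area under the fitted dose-response curve.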

[10] = tested on: BT-549; assay: as above
Outline: as §2

[11] = tested on: CAL-148; assay: as above
Outline: as §2

[12] = tested on: CAL-85-1; assay: as above
Outline: as §2

[13] = tested on: DU-4475; assay: as above
Outline: as §2

[14] = tested on: HCC1143; assay: as above
Outline: as §2

[15] = tested on: HCC1599; assay: as above
Outline: as §2

[16] = tested on: HCC1937; assay: as above
Outline: as §2

[17] = tested on: HDQ-P1; assay: as above
Outline: as §2

[18] = tested on: Hs578T; assay: as above
Outline: as §2

[19] = tested on: MCF-10A; assay: as above
Outline: as §2

[20] = tested on: MDA-MB-231; assay: as above
Outline: as §2

[21] = tested on: MDA-MB-436; assay: as above
Outline: as §2

[22] = tested on: MDA-MB-453; assay: as above
Outline: as §2

[23] = tested on: MDA-MB-468; assay: as above
Outline: as §2

[24] = tested on: MFM-223; assay: as above
Outline: as §2

O=C(O)C1(C(=O)O)CCC1.[NH2-].[NH2-].[Pt+2] [Carboplatin]
normalised viability [%]
Conditions | [1] | [2] | [3] | [4] | [5] | [6] | [7] | [8]
3 nM | – | – | – | – | – | 113 | – | –
10 nM | 87 | 79.8 | 94.5 | 85.8 | 80.3 | – | 100 | 100
30 nM | – | – | – | – | – | 93.3 | – | –
100 nM | – | – | – | – | – | 102 | – | –
1000 nM | 95.4 | 87.1 | 90.7 | 113 | 95.9 | – | 98.9 | 103
10000 nM | 78.3 | 87.7 | 87.1 | 93.7 | 82.2 | – | 83.3 | 113

Conditions | drug sensitivity score
[9] | 0
[10] | 0
[11] | 0
[12] | 0
[13] | 0
[14] | 0
[15] | 0
[16] | 0
[17] | 0
[18] | 0
[19] | 0
[20] | 0
[21] | 0
[22] | 0
[23] | 0
[24] | 0

CCN(CC)CCCC(C)Nc1c2ccc(Cl)cc2nc2ccc(OC)cc12 (centres undefined) [Mepacrine]
normalised viability [%]
Conditions | [1] | [2] | [3] | [4] | [5] | [6] | [7] | [8]
0.297 nM | – | – | – | – | – | 106 | – | –
0.99 nM | 114 | 123 | 105 | 89.4 | 109 | – | 108 | 100
2.97 nM | – | – | – | – | – | 107 | – | –
3 nM | – | – | – | – | – | 114 | – | –
9.9 nM | – | – | – | – | – | 100 | – | –
10 nM | 102 | 93.5 | 85.5 | 102 | 101 | – | 104 | 110
30 nM | – | – | – | – | – | 96.7 | – | –
99 nM | 109 | 114 | 82.1 | 81.4 | 105 | – | 106 | 104
100 nM | – | – | – | – | – | 102 | – | –
990 nM | 16.3 | 45 | 67.3 | 8.45 | 33 | – | 43.4 | 27.9
1000 nM | 89.6 | 96.1 | 79.5 | 65 | 81.4 | – | 94.7 | 101
10000 nM | 5.76 | 35.5 | 30.9 | 7.28 | 9.64 | – | 5.97 | 2.49

Conditions | drug sensitivity score
[9] | 0
[10] | 0
[11] | 0
[12] | 0
[13] | 0
[14] | 0
[15] | 0
[16] | 0
[17] | 0
[18] | 0
[19] | 0
[20] | 0
[21] | 0
[22] | 0
[23] | 0
[24] | 0

CC[C@@H]1C(=O)N(C)c2cnc(Nc3ccc(C(=O)NC4CCN(C)CC4)cc3OC)nc2N1C1CCCC1 [BI 2536]
normalised viability [%]
Conditions | [1] | [2] | [3] | [4] | [5] | [6] | [7] | [8]
0.3 nM | – | – | – | – | – | 97.8 | – | –
1 nM | 97.5 | 109 | 78.7 | 103 | 95.7 | – | 107 | 99.7
3 nM | – | – | – | – | – | 56.6 | – | –
10 nM | – | – | – | – | – | 32.6 | – | –
100 nM | 28.6 | 51.3 | 81.5 | 41.8 | 65.3 | – | 52.2 | 18.4
1000 nM | 30.6 | 52.4 | 61.3 | 41 | 78.5 | – | 55.1 | 23.1

Conditions | drug sensitivity score
[9] | 8.94
[10] | 21.3
[11] | 5.51
[12] | 14.1
[13] | 7.02
[14] | 15.7
[15] | 12.4
[16] | 0
[17] | 4.76
[18] | 13.3
[19] | 9.18
[20] | 13.3
[21] | 14
[22] | 11.5
[23] | 19.5
[24] | 16.7

CCCCC(=O)OCC(=O)[C@]1(O)Cc2c(O)c3c(c(O)c2[C@@H](O[C@H]2C[C@H](NC(=O)C(F)(F)F)[C@H](O)[C@H](C)O2)C1)C(=O)c1c(OC)cccc1C3=O [Valrubicin]
normalised viability [%]
Conditions | [1] | [2] | [3] | [4] | [5] | [6] | [7] | [8]
3 nM | – | – | – | – | – | 104 | – | –
10 nM | 96.1 | 97.2 | 79.7 | 84.8 | 111 | – | 105 | 91.3
30 nM | – | – | – | – | – | 93.2 | – | –
100 nM | – | – | – | – | – | 99.3 | – | –
1000 nM | 31.8 | 47.7 | 67.4 | 45.6 | 84.9 | – | 42 | 25.9
10000 nM | 15.6 | 24.9 | 40.2 | 19.4 | 42.8 | – | 30.6 | 9.82

Conditions | drug sensitivity score
[9] | 3.82
[10] | 9.05
[11] | 13.8
[12] | 4.91
[13] | 11.5
[14] | 8.06
[15] | 2.29
[16] | 4.28
[17] | 5.59
[18] | 5.56
[19] | 8.72
[20] | 3.05
[21] | 9.03
[22] | 2.44
[23] | 11.1
[24] | 1.28
